This is an account of results in patent publication US20150291598A1 (NOVARTIS AG, priority 2012, published 2015).

Where two headings read alike, the source gives them in different places.

The subject of this test is P. falciparum (NF54 or 3D7 strain). Nature of the test: Assay for P. falciparum proliferation in infected human blood cells (SYBR Green). It counts as cell-based, Plasmodium falciparum. The note with it: NF54 or 3D7 infected human erythrocytes, 72 hours, read-out: EC50 (nM), inhibitory efficacy in delaying P. falciparum proliferation in infected human blood cells. A digest of the protocol:
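Infected erythrocytes (NF54 or 3D7; final 2.5% hematocrit, 0.3% parasitemia) were incubated with compounds for 72 h at 37 °C in low oxygen (3% O2, 4% CO2, 93% N2).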

The mark [1] stands for this setting: Plasmodium falciparum, Erythrocyte, 72 h.

For `CC(C)[C@@H](N)C(=O)Nc1ccc(-c2cnc3cnc(C(=O)N(C)c4ccc(C#N)cc4)cn23)cc1` [Compound 286, 3-{4-[(2R)-2-amino-3-methylbutanamido]phenyl}-N-(4-cyanophenyl)-N-methylimidazo[1,2-a]pyrazine-6-carboxamide], the EC50 under setting [1] was 402 nM.

Regarding `Cc1ccc(N(C)Cc2cn3c(-c4ccc(C(F)(F)F)cc4)cnc3cn2)nc1` [Compound 287, N,5-dimethyl-N-({3-[4-(trifluoromethyl)phenyl]imidazo[1,2-a]pyrazin-6-yl}methyl)pyridin-2-amine], the EC50 under setting [1] was 972 nM.

Regarding `COc1ncc(N(C)C(=O)c2cn3c(-c4ccc(C(F)(F)F)cc4)cnc3cn2)cc1C` [Compound 288, N-(6-methoxy-5-methylpyridin-3-yl)-N-methyl-3-[4-(trifluoromethyl)phenyl]imidazo[1,2-a]pyrazine-6-carboxamide], under setting [1], the EC50 came to 565 nM.

As to `Cc1ccc(C(=O)N(C)c2cn3c(-c4ccc(C(F)(F)F)cc4)cnc3cn2)cc1` [Compound 289, N,4-dimethyl-N-{3-[4-(trifluoromethyl)phenyl]imidazo[1,2-a]pyrazin-6-yl}benzamide], under setting [1], the EC50 was found to be 1500 nM.

With `COc1cccc(N(C)C(=O)c2cn3c(-c4ccc(C(F)(F)F)cc4)cnc3cn2)n1` [Compound 290, N-(6-methoxypyridin-2-yl)-N-methyl-3-[4-(trifluoromethyl)phenyl]imidazo[1,2-a]pyrazine-6-carboxamide], the EC50 under setting [1] came out at 784 nM.

`CN(C)CCNC(=O)c1ccc(-c2cnc3cnc(C(=O)N(C)c4ccc(C#N)cc4)cn23)cc1` [Compound 291, N-(4-cyanophenyl)-3-(4-{[2-(dimethylamino)ethyl]carbamoyl}phenyl)-N-methylimidazo[1,2-a]pyrazine-6-carboxamide]: the EC50 under setting [1] turned out to be 1160 nM.

In the case of `CN(C(=O)c1cn2c(-c3ccc(C(F)(F)F)cc3)cnc2cn1)c1ccc(C#N)cc1F` [Compound 293, N-(4-cyano-2-fluorophenyl)-N-methyl-3-[4-(trifluoromethyl)phenyl]imidazo[1,2-a]pyrazine-6-carboxamide], the EC50 under setting [1] was determined as 76 nM.

Regarding `CN(C(=O)N1CCC(C)(C)CC1)c1cn2c(-c3ccc(C(F)(F)F)cc3)cnc2cn1` [Compound 294, N,4,4-trimethyl-N-{3-[4-(trifluoromethyl)phenyl]imidazo[1,2-a]pyrazin-6-yl}piperidine-1-carboxamide], the EC50 under setting [1] stood at 2120 nM.

Take `CN(C(=O)c1cn2c(-c3ccc(NC(=O)CN)nc3)cnc2cn1)c1ccc(C#N)cc1` [Compound 295, 3-[6-(2-aminoacetamido)pyridin-3-yl]-N-(4-cyanophenyl)-N-methylimidazo[1,2-a]pyrazine-6-carboxamide]: the EC50 under setting [1] is 237 nM.

For `COc1cc(N(C)C(=O)c2cn3c(-c4ccc(C(F)(F)F)cc4)cnc3cn2)ccn1` [Compound 296, N-(2-methoxypyridin-4-yl)-N-methyl-3-[4-(trifluoromethyl)phenyl]imidazo[1,2-a]pyrazine-6-carboxamide], the EC50 under setting [1] stood at 1280 nM.

For `Cc1ccc(-c2cnc3cnc(C(=O)N(C)c4ccc(C#N)cc4)cn23)cn1` [Compound 297, N-(4-cyanophenyl)-N-methyl-3-(6-methylpyridin-3-yl)imidazo[1,2-a]pyrazine-6-carboxamide], under setting [1], the EC50 amounted to 1290 nM.

As for `CCn1nccc1N(C)C(=O)c1cn2c(-c3ccc(C(F)(F)F)cc3)cnc2cn1` [Compound 298, N-(1-ethyl-1H-pyrazol-5-yl)-N-methyl-3-[4-(trifluoromethyl)phenyl]imidazo[1,2-a]pyrazine-6-carboxamide], the EC50 under setting [1] is 1070 nM.

Consider `Cc1cc(N(C)C(=O)c2cn3c(-c4ccc(C(F)(F)F)cc4)cnc3cn2)ccn1` [Compound 299, N-methyl-N-(2-methylpyridin-4-yl)-3-[4-(trifluoromethyl)phenyl]imidazo[1,2-a]pyrazine-6-carboxamide], for which the EC50 under setting [1] stood at 1130 nM.

As to `CN(C(=O)c1cn2c(-c3ccc(NC(C)(C)CNC(=O)OC(C)(C)C)cc3)cnc2cn1)c1ccc(C#N)cc1` [Compound 300, tert-butyl N-{2-[(4-{6-[(4-cyanophenyl)(methyl)carbamoyl]imidazo[1,2-a]pyrazin-3-yl}phenyl)amino]-2-methylpropyl}carbamate], under setting [1], the EC50 was found to be 2990 nM.

As for `CN(C(=O)c1cn2c(-c3ccc4[nH]ccc4c3)cnc2cn1)c1ccc(Cl)nc1` [Compound 301, N-(6-chloropyridin-3-yl)-3-(1H-indol-5-yl)-N-methylimidazo[1,2-a]pyrazine-6-carboxamide], the EC50 under setting [1] amounted to 1200 nM.

Turning to `COc1ccc(-c2ccc(N(C)C(=O)c3cn4c(-c5ccc(OC)cc5C)cnc4cn3)cn2)c(C)c1` [Compound 302, 3-(4-methoxy-2-methylphenyl)-N-[6-(4-methoxy-2-methylphenyl)pyridin-3-yl]-N-methylimidazo[1,2-a]pyrazine-6-carboxamide], the EC50 under setting [1] was 1850 nM.

Regarding `COc1ccncc1N(C)C(=O)c1cn2c(-c3ccc(C(F)(F)F)cc3)cnc2cn1` [Compound 303, N-(4-methoxypyridin-3-yl)-N-methyl-3-[4-(trifluoromethyl)phenyl]imidazo[1,2-a]pyrazine-6-carboxamide], the EC50 under setting [1] came to 1280 nM.

`Cc1cc(N(C)C(=O)c2cn3c(-c4ccc(C(F)(F)F)cc4)cnc3cn2)cnc1Cl` [Compound 304, N-(6-chloro-5-methylpyridin-3-yl)-N-methyl-3-[4-(trifluoromethyl)phenyl]imidazo[1,2-a]pyrazine-6-carboxamide]: under setting [1], the EC50 came out at 452 nM.

As for `O=C(c1cn2c(-c3ccc(C(F)(F)F)cc3)cnc2cn1)N1CCOc2cc(F)ccc21` [Compound 305, 7-fluoro-4-({3-[4-(trifluoromethyl)phenyl]imidazo[1,2-a]pyrazin-6-yl}carbonyl)-3,4-dihydro-2H-1,4-benzoxazine], the EC50 under setting [1] turned out to be 457 nM.

For the compound `O=C(c1cn2c(-c3ccc(C(F)(F)F)cc3)cnc2cn1)N1CCOc2ccccc21` [Compound 306, ({3-[4-(trifluoromethyl)phenyl]imidazo[1,2-a]pyrazin-6-yl}carbonyl)-3,4-dihydro-2H-1,4-benzoxazine], the EC50 was 607 nM.

For `CN(C(=O)c1cn2c(-c3ccc(NC(=O)C4(CN)CC4)cc3)cnc2cn1)c1ccc(C#N)cc1` [Compound 307, 3-(4-{[1-(aminomethyl)cyclopropane]amido}phenyl)-N-(4-cyanophenyl)-N-methylimidazo[1,2-a]pyrazine-6-carboxamide], the EC50 under setting [1] worked out at 1070 nM.

For the compound `CN(C(=O)c1ccc(C(F)(F)F)nc1)c1cn2c(-c3ccc(C(F)(F)F)cc3)cnc2cn1` [Compound 308, N-methyl-6-(trifluoromethyl)-N-{3-[4-(trifluoromethyl)phenyl]imidazo[1,2-a]pyrazin-6-yl}pyridine-3-carboxamide], the EC50 under setting [1] was determined as 2020 nM.

On to `Cc1ccncc1N(C)C(=O)c1cn2c(-c3ccc(C(F)(F)F)cc3)cnc2cn1` [Compound 309, N-methyl-N-(4-methylpyridin-3-yl)-3-[4-(trifluoromethyl)phenyl]imidazo[1,2-a]pyrazine-6-carboxamide], for which the EC50 under setting [1] stood at 611 nM.

`CCOc1ccnc(N(C)C(=O)c2cn3c(-c4ccc(C(F)(F)F)cc4)cnc3cn2)c1` [Compound 310, N-(4-ethoxypyridin-2-yl)-N-methyl-3-[4-(trifluoromethyl)phenyl]imidazo[1,2-a]pyrazine-6-carboxamide]: the EC50 under setting [1] amounted to 2480 nM.

Regarding `COc1ccc(C(=O)N(C)c2cn3c(-c4ccc(C(F)(F)F)cc4)cnc3cn2)cc1` [Compound 311, 4-methoxy-N-methyl-N-{3-[4-(trifluoromethyl)phenyl]imidazo[1,2-a]pyrazin-6-yl}benzamide], the EC50 under setting [1] was found to be 2780 nM.

Consider `CN(C(=O)c1cn2c(-c3cnc4[nH]ccc4c3)cnc2cn1)c1ccc(Cl)nc1` [Compound 312, N-(6-chloropyridin-3-yl)-N-methyl-3-{1H-pyrrolo[2,3-b]pyridin-5-yl}imidazo[1,2-a]pyrazine-6-carboxamide], for which the EC50 under setting [1] is 2640 nM.

Regarding `CN(C(=O)c1cn2c(-c3ccc(C(F)(F)F)cc3)cnc2cn1)c1ccc(-n2cncn2)cc1` [Compound 313, N-methyl-N-[4-(1H-1,2,4-triazol-1-yl)phenyl]-3-[4-(trifluoromethyl)phenyl]imidazo[1,2-a]pyrazine-6-carboxamide], under setting [1], the EC50 amounted to 1320 nM.

As to `CN(C(=O)c1cn2c(-c3ccc(NS(C)(=O)=O)cc3)cnc2cn1)c1ccc(C#N)cc1` [Compound 314, N-(4-cyanophenyl)-3-(4-methanesulfonamidophenyl)-N-methylimidazo[1,2-a]pyrazine-6-carboxamide], the EC50 under setting [1] came to 1040 nM.

Take `N#Cc1ccc2c(c1)OCCN2C(=O)c1cn2c(-c3ccc(C(F)(F)F)cc3)cnc2cn1` [Compound 315, 4-({3-[4-(trifluoromethyl)phenyl]imidazo[1,2-a]pyrazin-6-yl}carbonyl)-3,4-dihydro-2H-1,4-benzoxazine-7-carbonitrile]: the EC50 under setting [1] was determined as 2420 nM.

As to `CS(=O)(=O)c1ccc2c(c1)CCCN2C(=O)c1cn2c(-c3ccc(C(F)(F)F)cc3)cnc2cn1` [Compound 316, 6-methanesulfonyl-1-({3-[4-(trifluoromethyl)phenyl]imidazo[1,2-a]pyrazin-6-yl}carbonyl)-1,2,3,4-tetrahydroquinoline], the EC50 under setting [1] was 1890 nM.

With `CN(C(=O)c1cn2c(-c3ccc(C(F)(F)F)cc3)cnc2cn1)c1ccc(S(C)(=O)=O)cn1` [Compound 317, N-(5-methanesulfonylpyridin-2-yl)-N-methyl-3-[4-(trifluoromethyl)phenyl]imidazo[1,2-a]pyrazine-6-carboxamide], the EC50 under setting [1] was found to be 1900 nM.

`COC(=O)Nc1ccc(-c2cnc3cnc(CN(C)c4ccc(C)cn4)cn23)cc1` [Compound 318, methyl N-[4-(6-{[methyl(5-methylpyridin-2-yl)amino]methyl}imidazo[1,2-a]pyrazin-3-yl)phenyl]carbamate]: under setting [1], the EC50 turned out to be 2310 nM.
